# Read-outs that look alike come from different tables or passages of the source.
# What was measured:
# HepG2 = assay: Modified MTT cytotoxicity assay, HepG2; type: cell-based, Human; settings: for IC50: Homo sapiens; for SI (selectivity index) HepG2: quotient of IC50 for normal (LO2) and malignant (HepG2) cells
# Summary of the method: (§1)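 HepG2 grown in DMEM, SMMC-7721 and LO2 in RPMI 1640, each with 10% FBS; ~8 × 10^3 cells/well. Compounds at 0.3125-10 μg/mL for 24 h at 37 °C, then MTT for 4 h. IC50 as mean of three replicates.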
# SMMC-7721 = assay: Modified MTT cytotoxicity assay, SMMC-7721; type: cell-based, Human; settings: for SI (selectivity index) SMMC-7721: quotient of IC50 for normal (LO2) and malignant (SMMC-7721) cells
# Summary of the method: as §1
# [1] = Modified MTT cytotoxicity assay, normal heptical cell line LO2; type: cell-based, human; settings: human, LO2 cells (normal hepatic cell line), 24 h incubation
# Summary of the method: as §1
# female ICR mice = assay: Acute toxicity study, 14 days intragastric administration; type: in vivo; settings: for Liver tissue morphology, HE staining: intragastric
# Procedure: Preliminary safety evaluation of BAP 16 […]
# Acute Toxicity Studies: Animal experiments were reviewed and approved by the Binzhou Medical University Experimental Animal Committee. The acute toxicity study was investigated on the six-week-old female ICR mice (n = 30) weighing 18-22 grams (Jinan Pengyue Experimental Animal Breeding Co., Ltd.). Briefly, mice were randomly divided into three groups (n = 10/group) and administrated the BAP 16 or solvent. The three groups of mice were treated with intragastric administration of 300 mg/kg, 600 mg/kg of BAP 16 and vehicle (saline containing 0.5% CMC-Na) each day. The body weight of mice was recorded every day, and the toxicity and death of mice were monitored daily for up to day 14. On day 14, the surviving animals were dissected to observe whether the internal organs had visible tissue changes, and then the livers were taken for formaldehyde fixation, dehydration, embedding, sectioning, and HE staining. The cell images were taken using a light microscopy (Olympus, Tokyo, Japan).
# During the 14 days of intragastric administration, the food and water intakes of all three groups […]
# eosinophilic changes, and edema (Figure S1).
# Figure S1. The morphology of the liver tissues after the photo by HE staining. (A) In the control group, the hepatic lobular cells were normal without edema and degeneration. (B) In the 300 mg/kg […]
# nucleus stained deeper. […] (C) […]
# smaller and the color of nucleus became deeper. There were obvious eosinophilic changes and […]
# (1 picture or pasted object on this page, not shown here)
# p-p65 = assay: Western blot, LPS-stimulated phosphorylation of p65 in RAW264.7 cells; type: cell-based, mouse; settings: RAW264.7, 1.0, 2.0, 4.0 μM, LPS 1.0 μg/mL 30 min
# Source text: (§2) Primary antibodies (anti-Bax, Abcam, ab32503; anti-Bcl-2, Abcam, ab194583; anti-Cleaved caspase-3, Abcam, ab2302; anti-p65, Cell Signalling Technology, 8242S; anti-p-p65, Cell Signalling Technology, 3033S; anti-IκBα, Cell Signalling Technoligy, 4812S; anti-p-IκBα, Cell Signalling Technology, 2859S; anti-p38, Cell Signalling Technology, 8690S; anti-p-p38, Cell Signalling Technology, 4511S; anti-JNK, Cell Signalling Technology, 9258 T; anti-p-JNK, Santa Cruz Biotechnology, sc-6254; anti-GAPDH, Abcam, ab181602), and goat anti-rabbit IgG/HRP secondary antibodies (Cell Signalling Technology, 98164 s) were purchased and used according to the manufacturer’s instructions. HepG2 cell lines were incubated with different doses of BAP 16 (1.0, 2.0, 4.0 μM) for 24 h (Bax, Cleaved caspase-3, Bcl-2). RAW264.7 cells were incubated with BAP 16 for 1 h, then treated with LPS (1.0 μg/mL) for 30 min. Afterward cell extraction was performed and extracts were used for Western blot analysis. Next, 30 μg protein of cell lysates were separated by 12% SDS-PAGE gel. The proteins were then transferred onto nitrocellulose membranes. […] By using Quantity One software (Bio-Rad), western blotting results were quantified from more than three separate experiments.
# p-IκBα = assay: Western blot, LPS-stimulated phosphorylation of IκBα in RAW264.7 cells; type: cell-based, mouse; settings: RAW264.7, 1.0, 2.0, 4.0 μM, LPS 1.0 μg/mL 30 min
# Source text: as §2
# p-JNK = assay: Western blot, LPS-induced phosphorylation of JNK in RAW264.7 cells; type: cell-based, mouse; settings: RAW264.7, 1.0, 2.0, 4.0 μM, LPS 1.0 μg/mL 30 min
# Source text: as §2
# A549 = assay: Modified MTT cytotoxicity assay, A549
# Procedure: (§3) To further verify the anti-tumour activity, one human non-small cell lung cancer cell line (A549), one human ovarian cancer cell line (A2780), and one human normal heptical cell line (HHL-5) were screened by BAPs (4–30) using a modified MTT assay (Supporting Information). DOX and curcumin were selected as positive controls.
# (§4) The optical density (OD) value of each well was measured on a
# (§5) multi-well plate reader (TECAN, Mӓnnedorf, Switzerland ) at 570 nm.
# (§6) Every IC 50 value was the average of three replicates.
# (§7) Doxorubicin (DOX) and Curcumin were used as positive controls.
# A2780 = assay: Modified MTT cytotoxicity assay, A2780
# [2] = Modified MTT cytotoxicity assay, normal heptical cell line HHL-5; settings: human, HHL-5 cells (normal hepatic cell line)
# Procedure: as §3, §4, §5, §6, §7
# [3] = mice, intragastric, 300, 600 mg/kg/d, 14 days
compound,measurement,setting,value
O=C1C(=Cc2cccc(C(F)(F)F)c2)CN(S(=O)(=O)c2ccc(C(F)(F)F)cc2)CC1=Cc1cccc(C(F)(F)F)c1 [BAP 16],IC50,"HepG2; HepG2, 24 h, MTT, 24 h incubation, three replicates, read-out: Cytotoxicity IC50 HepG2",~600 nM
same,IC50,"HepG2; HepG2, average of HepG2 and SMMC-7721, read-out: Cytotoxicity against HCC cells, average",900 nM
same,"SI value, average",HepG2; average of SI for HepG2 and SMMC-7721,22.3
same,SI (selectivity index) HepG2,HepG2,ca. 29.7
same,SI (selectivity index) HepG2,HepG2; listed as 16,29.7
same,IC50,"SMMC-7721; Homo sapiens, SMMC-7721, 24 h, MTT, 24 h incubation, three replicates",~1200 nM
same,SI (selectivity index) SMMC-7721,SMMC-7721,ca. 14.8
same,SI (selectivity index) SMMC-7721,SMMC-7721; listed as 16,14.8
same,IC50 at 24 h,[1],~17800 nM
same,Overall toxicity conclusion,female ICR mice; cell and acute toxicity studies together,low overall toxicity
same,"Liver tissue morphology, HE staining","female ICR mice; mice, 300 mg/kg group, day 14",some liver cells became smaller
same,"Liver tissue morphology, HE staining","female ICR mice; mice, 600 mg/kg group, day 14",the cytoplasm of mouse liver was dehydrated seriously
same,Body weight,female ICR mice; [3],increased slightly
same,Food and water intakes,female ICR mice; [3],normal
same,Toxic reaction observed during administration,female ICR mice; [3],no obvious toxic reaction was observed
same,"Liver tissue changes, HE staining","female ICR mice; mice, intragastric, 300, 600 mg/kg/d, day 14",dose-related toxic changes
same,Expression level of p-p65,p-p65,significantly decreased in a dose-dependent manner
same,Expression level of p-IκBα,p-IκBα,significantly decreased in a dose-dependent manner
same,Expression level of p-JNK,p-JNK,significantly decreased
same,IC50,"A549; Homo sapiens, A549, read-out: Cytotoxicity IC50 A549, MTT, non-small cell lung cancer cell line",430 ± 80 nM
same,SI (selectivity index) A549,A549; quotient of IC50 for normal (HHL-5) and malignant (A549) cells,14.4
same,IC50,"A2780; Homo sapiens, A2780, read-out: Cytotoxicity IC50 A2780, MTT, ovarian cancer cell line",270 ± 20 nM
same,SI (selectivity index) A2780,A2780; quotient of IC50 for normal (HHL-5) and malignant (A2780) cells,23.0
same,IC50,[2],6200 ± 400 nM
